According to patent US20070060636A1, “High enantiomeric purity dexanabinol for pharmaceutical compositions” (priority 2002, published 2007):
Read-outs that look alike come from different tables or passages of the source.

Key:
[1] = 1st Phase I study, rising single i.v. dose, healthy male volunteers; type: in vivo, human; conditions: for AUC∞/Dose: normalized for dose (mg/kg); for half-life / MRT / clearance / AUC / AUC(0-inf) / Cmax / Vd: male, human, plasma, iv; for AUC / AUC(0-inf) / Cmax: up to 24 hr; for Vd: read-out: Vss
Procedure: Pharmacokinetic parameters were estimated by a non-compartmental method using WinNonlin Professional version 3.2 (Pharsight Corp., Mountain View, Calif.). The maximum plasma concentration (Cmax), when the drug is administered by infusion, is the concentration at the end of infusion. The Cmax following intravenous bolus administration is the value estimated by the software to be the concentration at t=0. The terminal slope (X) was estimated by linear regression through the last time points and used to calculate the terminal half-life (t1/2) from the following equation: t1/2=0.693/λ The area under the curve from time of dosing through the last time point (AUCz) was calculated by the linear trapezoid method. The AUC extrapolated to infinity (AUC∞) was calculated from the following equation: AUC∞=AUCz+Cz/λ where Cz is the concentration at the last time point predicted by the linear regression. AUC∞ was normalized for dose (mg/kg) and presented as AUC∞/Dose. Mean residence time (MRT), when the drug is administered by infusion is described by the following equation: MRT=(AUMC/AUC)−(TI)/2 Mean residence time after i.v. bolus administration is described by the following equation: MRT=(AUMC/AUC) where AUMC is the area under the first moment curve and TI is the length of infusion. Plasma clearance (CL), and the apparent volume of distribution at steady state (Vss) were calculated from the following equations: CL=Dose/AUC∞ Vss=MRT×CL
A Phase I, open label, single center study was conducted to evaluate the safety and tolerance of dexanabinol of high enantiomeric purity following a single intravenous administration to normal, healthy male volunteers (Brewster M. E. et al., International Journal Of Clinical Pharmacology and Therapeutics 35: 361-5, 1997). The trial was designed as a rising-dose tolerance study in healthy young male volunteers. In the study, seven groups of at least six subjects each (in the 100 mg dose n=9) received increasing doses (4, 8, 16, 32, 48, 100, 200 mg/volunteer) of dexanabinol. An additional group of 6 subjects received the vehicle alone. The lower doses, from 4 to 32 mg/volunteer, were included only in the safety segment of the study. Volunteers were followed-up up to 6 days after drug dosing for safety evaluation.
The pharmacokinetic segment of this study involved 27 healthy male subjects to assess the pharmacokinetic profile of 48, 100 and 200 mg i.v. doses of dexanabinol. Each dosing group, including vehicle control, consisted of 6 healthy male subjects, except for the 100 mg dosing group which contained nine subjects. On the pre-study day, volunteers were treated with 20 mg dexamethasone orally. On the study day, each group was premedicated with Chlorpheniramine maleate 10 mg (H1 blocker) and Cimetidine 300 mg (H2 blocker) intravenously, followed 30 minutes later by a single intravenous infusion of dexanabinol, administered using an Ivac peristaltic pump at a rate of 6 ml/min (approximately 15 min infusion/dose). Ten milliliters of blood were then removed (from the contralateral arm) at the end of the infusion, at 5, 10, 20, 30, 45 min, and at 1, 2, 3, 6, 12 and 24 hr post infusion. In some cases blood was also drawn 48 hr post end of infusion.
Mean pharmacokinetic parameters were estimated by non-compartmental methods up to 24 hr post-infusion for each dose group (mean±SE; n=6 or 9) using WinNonlin Professional version 3.2, (Pharsight Corp., Mountain view Calif.) and are presented in Table 8.

[2] = oral bioavailability, hard gelatin capsules, minipig model; type: in vivo; conditions: plasma, 40 mg/kg
Procedure: The percentage of oral bioavailability was calculated using the following equation: % F=[AUCoral/Doseoral]/[AUCIV/DoseIV] Non-human Pharmacokinetic Studies.
Dexanabinol of high enantiomeric purity (lot # AC9001HU) filled in hard gelatin capsules have shown good oral bioavailability. A pharmacokinetic study for oral bioavailability of dexanabinol in large animals using the minipig model (the best animal model for oral absorption of drugs) was carried out. The animals (n=3) after 8 hours of food deprivation were administered orally with hard gelatin capsules containing dexanabinol of high enantiomeric purity at a dose of 40 mg/kg. Dexanabinol plasma levels were determined using a validated GC-MS assay up to 48 hours following administration. […] Pharmacokinetic analysis was done using the non-compartmental model analysis (WinNonlin software). Linear trapezoidal rule was used to compute AUC and AUMC.

[3] = 48 mg single i.v. infusion, healthy volunteers, mean ± SE
[4] = 100 mg single i.v. infusion, healthy volunteers, mean ± SE
[5] = 200 mg single i.v. infusion, healthy volunteers, mean ± SE

Compound: CCCCCCC(C)(C)c1cc(O)c2c(c1)OC(C)(C)[C@H]1CC=C(CO)C[C@H]21 [dexanabinol, 1,1-dimethylheptyl-(3S,4S)-7-hydroxy-Δ^6-tetrahydrocannabinol]
- AUC∞/Dose [1, 3]: 72,469 ± 8,774 ng × min/ml
- AUC∞/Dose [1, 4]: 59,374 ± 4,742 ng × min/ml
- AUC∞/Dose [1, 5]: 48,162 ± 3,355 ng × min/ml
- Plasma concentrations ([1]; after a 48 mg dose (0.62 mg/kg)): approximately 1.8 μg/ml
- Plasma concentrations ([1]; at 100 mg (1.29 mg/kg)): ~2900 ng/mL
- Plasma concentrations ([1]; at 200 mg (2.59 mg/kg)): ~4600 ng/mL
- half-life ([1]; 48 mg, 48 mg single i.v. infusion, healthy volunteers, mean ± SE, read-out: t1/2 (converted)): 6.3 ± 0.7 h
- half-life ([1]; 100 mg, 100 mg single i.v. infusion, healthy volunteers, mean ± SE, read-out: t1/2 (converted)): 6.1 ± 0.7 h
- half-life ([1]; 200 mg, 200 mg single i.v. infusion, healthy volunteers, mean ± SE, read-out: t1/2 (converted)): 8.2 ± 0.7 h
- half-life ([1]; single i.v. infusion 48, 100, 200 mg, read-out: distributional phase half-life): 0.0333 to 0.05 h
- half-life ([1]; single i.v. infusion 48, 100, 200 mg, read-out: intermediate phase elimination half-life): 1 to 2 h
- half-life ([1]; single i.v. infusion 48, 100, 200 mg, read-out: terminal elimination phase half-life): 8.5 to 9.5 h
- MRT [1, 3]: 3.1 ± 0.2 h
- clearance [1, 3]: 14.9 ± 1.9 mL/min/kg
- AUC [1, 3]: 710 ng·h/mL
- AUC(0-inf) [1, 3]: 725 ng·h/mL
- Cmax [1, 3]: 1860 ng/mL
- Vd [1, 3]: 2.8 ± 0.4 L/kg
- MRT [1, 4]: 3.1 ± 0.3 h
- clearance [1, 4]: 17.8 ± 1.5 mL/min/kg
- AUC [1, 4]: 1200 ng·h/mL
- AUC(0-inf) [1, 4]: 1220 ng·h/mL
- Cmax [1, 4]: 2890 ng/mL
- Vd [1, 4]: 3.4 ± 0.4 L/kg
- MRT [1, 5]: 4 ± 0.6 h
- clearance [1, 5]: 21.3 ± 1.6 mL/min/kg
- AUC [1, 5]: 2240 ng·h/mL
- AUC(0-inf) [1, 5]: 2320 ng·h/mL
- Cmax [1, 5]: 4570 ng/mL
- Vd [1, 5]: 5 ± 0.7 L/kg
- acute doses found safe ([1]; single i.v.): ≤ 200 mg per subject
- tolerability of drug administration ([1]; single i.v. 4 to 200 mg/volunteer): well tolerated
- AUC ([2]; n=3): 4210 ng·h/mL
- Cmax ([2]; n=3): 271 ± 102 ng/mL
- MRT ([2]; n=3): 12.1 ± 1.15 h
- half-life ([2]; n=3): 7.47 ± 1.06 h
- bioavailability ([2]; oral, n=3, read-out: % F (oral bioavailability compared to i.v. injection)): ~12%
